Data from patent US20230181614A1, “ADMINISTRATION OF CITICOLINE TO IMPROVE COGNITIVE PERFORMANCE, ATTENTIONAL PERFORMANCE, AND MOTOR FUNCTION” (KYOWA HAKKO BIO CO., LTD., priority 2014, published 2023).

Test system: Healthy subjects, ages 13-18
Assay: General Questionnaire
Format: in vivo, human
Excerpt: Study participants were screened by telephone prior to study enrollment. Healthy subjects, ages 13-18, with no significant medical conditions and no history of co-morbid psychiatric disorder, current Axis I or II diagnosis, or previous participation in a pharmacotherapeutic trial, were selected. Use of any psychotropic medication or any previous head injury resulting in loss of consciousness for 5 or more minutes were used as exclusion criteria. While no participant met criteria for a neuropsychiatric disorder at enrollment, clinical assessments were still completed throughout the study to evaluate changes in mood state. In addition, self-reports of sleep habits, lifestyle, and exercise routines were also administered at baseline as well as at each study visit to assess changes in health habits during study participation. Following the completion of Visit 1 assessment, participants were given their 28-day supply of citicoline (250 mg or 500 mg) or placebo, which was randomly assigned. They were instructed to take one capsule a day every day for the next 28 days. Visit 2 occurred fourteen days after Visit 1. At Visit 2, the remaining study pills were counted and participant dosage calendars were checked to ensure compliance with the protocol. Additional neuropsychological measures and clinical assessments were administered during this visit. Participants returned for Visit 3 fourteen days later, on the 28th day of their study participation. The pill bottle and the dosage calendar were collected from each participant. Urine and blood were again obtained. Participants also participated in similar clinical and neuropsychological testing and clinical measures that were given during visit 1. The General Questionnaire and Exercise and Life Style Questionnaire are self-report questionnaires designed to assess a variety of symptoms, behaviors, and self-perceptions, including mood, complexion, exercise, food, and alcohol habits of each of the participants. The General Questionnaire was administered during each of the three study visits; the Exercise and Life Style Questionnaire was administered during each of the three study visits. The General Questionnaire included five summary categories (Vision, Depression, Attention, Sleep, and Complexion) each of which had multiple individual items. Within and between group analyses are reported below for each of the summary categories.

## C[N+](C)(C)CCOP(=O)(O)OP(=O)([O-])OC[C@H]1O[C@@H](n2ccc(N)nc2=O)[C@H](O)[C@@H]1O [citicoline, Cytidine 5′-diphosphocholine]
250 mg/day
  Attention Total V3-V1 Difference Mean: -5.58
  Complexion Total V3-V1 Difference Mean: -0.67
  Depression Total V3-V1 Difference Mean: -7.37
  Sleep Total V3-V1 Difference Mean: -5.59
  Vision Total V3-V1 Difference Mean: -2.26
250 mg/day, Visit 3
  Attention Total V3 Mean: 38.48
  Complexion Total V3 Mean: 3.96
  Depression Total V3 Mean: 21.04
  Sleep Total V3 Mean: 18.96
  Vision Total V3 Mean: 6.59
250 mg/day, V1 (baseline)
  General Questionnaire Attention Q13, Mean: 3.52
  General Questionnaire Attention Q14, Mean: 2.37
  General Questionnaire Attention Q15, Mean: 3.89
  General Questionnaire Attention Q16, Mean: 3.19
  General Questionnaire Attention Q17, Mean: 3.30
  General Questionnaire Attention Q18, Mean: 2.63
  General Questionnaire Attention Q19, Mean: 6.59
  General Questionnaire Attention Q20, Mean: 3.48
  General Questionnaire Attention Q21, Mean: 3.22
  General Questionnaire Attention Q22, Mean: 4.00
  General Questionnaire Attention Q23, Mean: 4.15
  General Questionnaire Attention Q24, Mean: 3.67
  General Questionnaire Attention Total, Mean: 44.31
  General Questionnaire Complexion Q33, Mean: 2.78
  General Questionnaire Complexion Q34, Mean: 1.85
  General Questionnaire Complexion Total, Mean: 4.63
  General Questionnaire Depression Q4, Mean: 2.59
  General Questionnaire Depression Q5, Mean: 3.26
  General Questionnaire Depression Q6, Mean: 2.85
  General Questionnaire Depression Q7, Mean: 4.26
  General Questionnaire Depression Q8, Mean: 2.74
  General Questionnaire Depression Q9, Mean: 3.74
  General Questionnaire Depression Q10, Mean: 2.85
  General Questionnaire Depression Q11, Mean: 2.85
  General Questionnaire Depression Q12, Mean: 3.26
  General Questionnaire Depression Total, Mean: 28.41
  General Questionnaire Sleep Q25, Mean: 3.19
  General Questionnaire Sleep Q26, Mean: 2.78
  General Questionnaire Sleep Q27, Mean: 3.26
  General Questionnaire Sleep Q28, Mean: 3.63
  General Questionnaire Sleep Q29, Mean: 3.48
  General Questionnaire Sleep Q30, Mean: 2.11
  General Questionnaire Sleep Q31, Mean: 1.96
  General Questionnaire Sleep Q32, Mean: 4.15
  General Questionnaire Sleep Total, Mean: 24.56
  General Questionnaire Vision Q1, Mean: 3.44
  General Questionnaire Vision Q2, Mean: 3.26
  General Questionnaire Vision Q3, Mean: 2.15
  General Questionnaire Vision Total, Mean: 8.85
250 mg/day, V3 (day 28)
  General Questionnaire Attention Q13, Mean: 2.74
  General Questionnaire Attention Q14, Mean: 2.48
  General Questionnaire Attention Q15, Mean: 3.15
  General Questionnaire Attention Q16, Mean: 2.63
  General Questionnaire Attention Q17, Mean: 2.48
  General Questionnaire Attention Q18, Mean: 2.26
  General Questionnaire Attention Q19, Mean: 6.41
  General Questionnaire Attention Q20, Mean: 3.22
  General Questionnaire Attention Q21, Mean: 3.15
  General Questionnaire Attention Q22, Mean: 3.35
  General Questionnaire Attention Q23, Mean: 3.70
  General Questionnaire Attention Q24, Mean: 2.96
  General Questionnaire Attention Total, Mean: 38.73
  General Questionnaire Complexion Q33, Mean: 2.30
  General Questionnaire Complexion Q34, Mean: 1.67
  General Questionnaire Complexion Total, Mean: 3.96
  General Questionnaire Depression Q4, Mean: 1.81
  General Questionnaire Depression Q5, Mean: 2.30
  General Questionnaire Depression Q6, Mean: 2.00
  General Questionnaire Depression Q7, Mean: 3.33
  General Questionnaire Depression Q8, Mean: 1.81
  General Questionnaire Depression Q9, Mean: 2.89
  General Questionnaire Depression Q10, Mean: 2.07
  General Questionnaire Depression Q11, Mean: 2.15
  General Questionnaire Depression Q12, Mean: 2.67
  General Questionnaire Depression Total, Mean: 21.04
  General Questionnaire Sleep Q25, Mean: 2.33
  General Questionnaire Sleep Q26, Mean: 2.15
  General Questionnaire Sleep Q27, Mean: 2.07
  General Questionnaire Sleep Q28, Mean: 2.78
  General Questionnaire Sleep Q29, Mean: 2.19
  General Questionnaire Sleep Q30, Mean: 1.96
  General Questionnaire Sleep Q31, Mean: 1.93
  General Questionnaire Sleep Q32, Mean: 3.56
  General Questionnaire Sleep Total, Mean: 18.96
  General Questionnaire Vision Q1, Mean: 2.33
  General Questionnaire Vision Q2, Mean: 2.44
  General Questionnaire Vision Q3, Mean: 1.81
  General Questionnaire Vision Total, Mean: 6.59
500 mg/day
  Attention Total V3-V1 Difference Mean: -5.17
  Complexion Total V3-V1 Difference Mean: -1.42
  Depression Total V3-V1 Difference Mean: -5.21
  Sleep Total V3-V1 Difference Mean: -3.25
  Vision Total V3-V1 Difference Mean: -1.50
500 mg/day, Visit 1
  Attention Q13 V1 Mean: 2.42
  Attention Q14 V1 Mean: 2.21
  Attention Q15 V1 Mean: 2.63
  Attention Q16 V1 Mean: 2.83
  Attention Q17 V1 Mean: 1.96
  Attention Q18 V1 Mean: 2.79
  Attention Q19 V1 Mean: 7.29
  Attention Q20 V1 Mean: 2.54
  Attention Q21 V1 Mean: 3.25
  Attention Q22 V1 Mean: 1.83
  Attention Q23 V1 Mean: 2.92
  Attention Q24 V1 Mean: 2.46
  Attention Total V1 Mean: 35.13
  Complexion Q33 V1 Mean: 2.58
  Complexion Q34 V1 Mean: 1.88
  Complexion Total V1 Mean: 4.46
  Depression Q4 V1 Mean: 1.75
  Depression Q5 V1 Mean: 2.46
  Depression Q6 V1 Mean: 2.21
  Depression Q7 V1 Mean: 3.13
  Depression Q8 V1 Mean: 1.92
  Depression Q9 V1 Mean: 3.04
  Depression Q10 V1 Mean: 2.00
  Depression Q11 V1 Mean: 2.00
  Depression Q12 V1 Mean: 2.04
  Depression Total V1 Mean: 20.54
  Sleep Q25 V1 Mean: 3.54
  Sleep Q26 V1 Mean: 2.54
  Sleep Q27 V1 Mean: 2.00
  Sleep Q28 V1 Mean: 2.96
  Sleep Q29 V1 Mean: 2.00
  Sleep Q30 V1 Mean: 2.04
  Sleep Q31 V1 Mean: 2.33
  Sleep Q32 V1 Mean: 3.54
  Sleep Total V1 Mean: 20.83
  Vision Q1 V1 Mean: 2.75
  Vision Q2 V1 Mean: 2.54
  Vision Q3 V1 Mean: 1.71
  Vision Total V1 Mean: 7.00
500 mg/day, Visit 3
  Attention Q13 V3 Mean: 1.96
  Attention Q14 V3 Mean: 1.83
  Attention Q15 V3 Mean: 1.92
  Attention Q16 V3 Mean: 1.92
  Attention Q17 V3 Mean: 1.75
  Attention Q18 V3 Mean: 1.92
  Attention Q19 V3 Mean: 8.42
  Attention Q20 V3 Mean: 1.92
  Attention Q21 V3 Mean: 2.42
  Attention Q22 V3 Mean: 1.63
  Attention Q23 V3 Mean: 2.13
  Attention Q24 V3 Mean: 2.17
  Attention Total V3 Mean: 29.96
  Complexion Q33 V3 Mean: 1.75
  Complexion Q34 V3 Mean: 1.29
  Complexion Total V3 Mean: 3.04
  Depression Q4 V3 Mean: 1.58
  Depression Q5 V3 Mean: 1.88
  Depression Q6 V3 Mean: 1.67
  Depression Q7 V3 Mean: 2.25
  Depression Q8 V3 Mean: 1.46
  Depression Q9 V3 Mean: 2.00
  Depression Q10 V3 Mean: 1.54
  Depression Q11 V3 Mean: 1.38
  Depression Q12 V3 Mean: 1.58
  Depression Total V3 Mean: 15.33
  Sleep Q25 V3 Mean: 2.50
  Sleep Q26 V3 Mean: 1.71
  Sleep Q27 V3 Mean: 1.83
  Sleep Q28 V3 Mean: 2.29
  Sleep Q29 V3 Mean: 1.96
  Sleep Q30 V3 Mean: 1.96
  Sleep Q31 V3 Mean: 2.21
  Sleep Q32 V3 Mean: 3.13
  Sleep Total V3 Mean: 17.58
  Vision Q1 V3 Mean: 1.92
  Vision Q2 V3 Mean: 2.08
  Vision Q3 V3 Mean: 1.50
  Vision Total V3 Mean: 5.50
